US6426356B1, “Imidazoethyl thiophenes” (Ortho-McNeil Pharmaceutical, Inc., priority 1998, dated 2002)
Read-outs that look alike come from different tables or passages of the source.

Key:
[1] = biological target: T1, Alpha-2D Adrenergic Receptor (Rattus norvegicus, UniProt P22909); experiment: Alpha-2D adrenergic receptor binding assay (3H-para-aminoclonidine, rat cortex synaptic membranes)
T1 construct: aliquots of the synaptic membrane fraction, the ligand ^3H-para-aminoclonidine and test drug; from tissue; host or cells: rat brain cortex synaptic membrane fraction (male Wistar rats)
T1 sequence (P22909 1-465): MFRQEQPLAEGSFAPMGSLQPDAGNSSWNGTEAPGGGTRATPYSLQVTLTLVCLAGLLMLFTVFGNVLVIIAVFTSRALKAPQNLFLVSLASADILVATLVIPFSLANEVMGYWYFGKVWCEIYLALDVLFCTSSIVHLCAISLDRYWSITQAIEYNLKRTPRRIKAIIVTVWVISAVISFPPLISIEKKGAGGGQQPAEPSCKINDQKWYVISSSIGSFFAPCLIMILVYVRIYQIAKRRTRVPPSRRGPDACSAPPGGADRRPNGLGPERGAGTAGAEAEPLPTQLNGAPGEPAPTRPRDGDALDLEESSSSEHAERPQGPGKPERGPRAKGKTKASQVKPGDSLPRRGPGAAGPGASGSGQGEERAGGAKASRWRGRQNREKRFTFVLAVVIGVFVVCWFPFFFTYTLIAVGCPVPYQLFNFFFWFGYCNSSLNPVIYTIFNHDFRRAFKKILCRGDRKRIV
Experimental: Alpha-2D Adrenergic Receptor Binding Assay
Male, Wistar rats (150-250 g, VAF, Charles River, Kingston, N.Y.) are sacrificed by cervical dislocation and their brains removed and placed immediately in ice cold HEPES buffered sucrose. The cortex is dissected out and homogenized in 20 volumes of HEPES sucrose in a Teflon™-glass homogenizer. The homogenate is centrifuged at 1000 g for 10 min, and the resulting supernatant centrifuged at 42,000 g for 10 min. The resulting pellet is resuspended in 30 volumes of 3 mM potassium phosphate buffer, pH 7.5, preincubated at 25 ° C. for 30 min and recentrifuged. The resulting pellet is resuspended as described above and used for the receptor binding assay. […] The incubation is terminated by filtration of the tube contents through glass fiber filter sheets. Following washing of the sheets with 10 mM HEPES buffer, the adhering radioactivity is quantified by liquid scintillation spectrometry.
Binding of the test drug to the receptor is determined by comparing the amount of radiolabeled ligand bound in control tubes without drug to the amount of radiolabeled ligand bound in the presence of the drug. Dose-response data are analyzed with LIGAND, a nonlinear curve fitting program designed specifically for the analysis of ligand binding data.

[2] = tested on: mouse acetylcholine bromide-induced abdominal constriction; experiment: Mouse acetylcholine bromide-induced abdominal constriction assay (MAIT); type: in vivo; settings: po; % inhibition of abdominal constriction; dose not given
Experimental: Mouse Acetylcholine Bromide-Induced Abdominal Constriction Assay (MAIT)
The mouse acetylcholine bromide-induced abdominal constriction assay, as described by Collier et al. in Brit. […] The test drugs or appropriate vehicle were administered orally (p.o.) and 30 minutes later the animal received an intraperitoneal (i.p.) injection of 5.5 mg/kg acetylcholine bromide (Matheson, Coleman and Bell, East Rutherford, N.J.). The mice were then placed in groups of three into glass bell jars and observed for a ten minute observation period for the occurrence of an abdominal constriction response (defined as a wave of constriction and elongation passing caudally along the abdominal wall, accompanied by a twisting of the trunk and followed by extension of the hind limbs). The percent inhibition of this response to a nociceptive stimulus (equated to % analgesia) was calculated as follows: The % Inhibition of response, i.e., % analgesia is equal to the difference between the number of control animals responding and the number of drug-treated animals responding times 100 divided by the number of control animals responding.
At least 15 animals were used for control and in each of the drug treated groups.

[3] = tested on: mouse acetylcholine bromide-induced abdominal constriction; experiment: as above; type: in vivo; settings: sc; % inhibition of abdominal constriction; dose not given
[4] = 3H-para-aminoclonidine, rat cortex membranes, read-out: α2D Ki

Row | Structure (SMILES) | Ki [1, 4] [nM] | MAIT [2] [po] | Ki [1] [nM] | MAIT [3] [sc]
1 | Cc1ccsc1CCc1c[nH]cn1 [Cp-1] | 0.075 | 93 | – | –
2 | c1csc(CCc2c[nH]cn2)c1 [Cp-2] | – | 60 | 0.1 | –
3 | c1nc(CCc2ccsc2)c[nH]1 [Cp-3] | – | 53 | 0.53 | –
4 | Cc1ccc(CCc2c[nH]cn2)s1 [Cp-4] | – | 7 | 1.1 | –
5 | CCc1sccc1CCc1c[nH]cn1 [Cp-5] | 1.8 | 67 | – | –
6 | CCc1ccc(CCc2c[nH]cn2)s1 [Cp-6] | – | 20 | 1.2 | –
7 | CCc1csc(CCc2c[nH]cn2)c1 [Cp-8] | – | 20 | 0.15 | –
8 | Cc1ccc(/C=C/c2c[nH]cn2)s1 [Cp-12] | – | 7 | 22 | –
9 | Cc1ccsc1/C=C/c1c[nH]cn1 [Cp-13] | – | – | 3.2 | –
10 | Clc1ccc(/C=C/c2c[nH]cn2)s1 [Cp-14] | – | 20 | 17 | –
11 | Brc1csc(C=Cc2c[nH]cn2)c1 [Cp-16] | – | 20 | 31 | –
12 | CCc1ccc(/C=C/c2c[nH]cn2)s1 [Cp-17] | – | – | 22 | 13
13 | CCc1csc(C=Cc2c[nH]cn2)c1 [Cp-18] | – | – | 26 | 53
